# Measurements as given in article PMC8850191, “Mechanisms of inhibition and activation of extrasynaptic αβ GABAA receptors” (Nature, 2022).
# Values joined by “and” are separate entries in the source; they are usually repeats but may differ in a detail not shown here. Identical values can stand only once. Like-named read-outs stand apart in the source and are kept apart here.
# T1: human GABAA α1β3 (WT) (Homo sapiens, UniProt P14867+P28472)
# T1 sequence (P14867 28-456): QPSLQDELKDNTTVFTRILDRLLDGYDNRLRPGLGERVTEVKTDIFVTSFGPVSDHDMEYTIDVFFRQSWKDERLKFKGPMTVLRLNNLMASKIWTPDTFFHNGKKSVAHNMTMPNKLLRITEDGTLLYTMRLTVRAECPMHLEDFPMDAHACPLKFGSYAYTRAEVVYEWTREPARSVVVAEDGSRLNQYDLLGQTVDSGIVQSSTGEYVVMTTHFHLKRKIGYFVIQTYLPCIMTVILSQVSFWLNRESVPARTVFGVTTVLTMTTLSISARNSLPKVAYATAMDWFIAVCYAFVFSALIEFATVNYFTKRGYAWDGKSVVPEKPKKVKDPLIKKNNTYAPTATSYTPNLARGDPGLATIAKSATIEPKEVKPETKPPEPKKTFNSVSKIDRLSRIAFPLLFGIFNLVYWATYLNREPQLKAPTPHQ
# T1 sequence (P28472 26-473): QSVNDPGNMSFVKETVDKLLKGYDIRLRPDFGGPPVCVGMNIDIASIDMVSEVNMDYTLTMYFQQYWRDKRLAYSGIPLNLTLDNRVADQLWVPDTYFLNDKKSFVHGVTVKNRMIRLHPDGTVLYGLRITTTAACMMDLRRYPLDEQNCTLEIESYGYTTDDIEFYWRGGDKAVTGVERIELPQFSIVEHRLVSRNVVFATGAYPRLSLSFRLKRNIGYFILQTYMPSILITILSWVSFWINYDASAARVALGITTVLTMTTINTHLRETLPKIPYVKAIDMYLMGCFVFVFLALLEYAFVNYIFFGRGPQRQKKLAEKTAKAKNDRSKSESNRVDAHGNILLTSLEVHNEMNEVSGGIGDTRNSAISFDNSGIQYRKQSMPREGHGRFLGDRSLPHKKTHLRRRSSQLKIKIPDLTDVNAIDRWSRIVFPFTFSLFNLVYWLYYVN
# B1: α-Cobratoxin (protein)
# chain: IRCFITPDITSKDCPNGHVCYTKTWCDAFCSIRGKRVDLGCAATCPTVKTGVDIQCCSTDNCNPFPTRKRP
# Key:
# [1] = test system: α1β3; design: method as in earlier work; settings: muscimol versus muscimol + propofol; ref 2020 Akk G Steinbach JH, PMID:32873746; cited from earlier work
# [2] = test system: αβδ receptors; settings: one β-subunit His replaced by Ser (δ-subunit), relative to αβ; cited from earlier work
# [3] = target: T1, human GABAA α1β3 (WT); experiment: Whole-cell patch clamp, Zn2+ inhibition of GABA currents, HEK 293 cells; format: cell-based; design: expressed in transfected cells; host or cells: HEK 293 cells, transient calcium-phosphate transfection, α1:β3:GFP 1:1:1
# Experimental: (§1) Whole-cell responses were recorded in patch clamp experiments from HEK 293 cells transiently transfected with human GABAA α1β3 (WT), α1GLIVIβ3BRIL (α1β3cryo-EM; see ‘Constructs’) or α1β3γ2 (WT). HEK 293 cells were grown in DMEM supplemented with 10% v/v fetal bovine serum, 100 U ml^−1 penicillin-G and 100 µg ml^−1 streptomycin (37 °C; 95% air/5% CO2), and transfected using a calcium-phosphate precipitation method with α1:β3:GFP or α1:β3:γ2:GFP cDNAs in a ratio of 1:1:1 or 1:1:3:1, respectively, 12–24 h before experimentation. Recordings were performed with cells continuously perfused with Krebs solution composed of (mM): 140 NaCl, 4.7 KCl, 1.2 MgCl2, 2.52 CaCl2, 11 Glucose and 5 HEPES (pH 7.4; ~300 mOsm). Patch pipettes (TW150F-4; WPI; 3–4 MΩ) were filled with an internal solution containing (mM): 140 KCl, 1 MgCl2, 11 EGTA, 10 HEPES,1 CaCl2, 2 K-ATP (pH 7.2; ~305 mOsm). […] Cells were voltage-clamped at −40 mV with an Axopatch 200B amplifier (Molecular Devices), currents were digitized at 50 kHz via a Digidata 1322A (Molecular Devices), filtered at 5 kHz (−36 dB), and acquired using Clampex 10.2 (Molecular Devices). Series resistance was compensated at 60–70% (lag time 10 μs).
# (§2) For free Zn^2+ concentration experiments, the Zn^2+ chelator tricine was used to precisely control Zn^2+ concentration and eliminate background Zn^2+ contamination. Krebs solution was supplemented with 10 mM tricine and pH corrected to 7.4.
# (§3) Peak current responses and desensitization rates were obtained using Clampfit 10.2 (Molecular Devices).
# [4] = target: α1β3 cryo-EM construct (α1β3CryoEM) (Homo sapiens, UniProt P14867+P28472, DEL344-414/G341Q/R340S/S415R/S417A/V416A/Y342P); settings: for IC50: mean pIC50 converted
# Sequence of α1β3 cryo-EM construct (α1β3CryoEM) (P14867 with tags, fused parts or gaps R340S/G341Q/Y342P/DEL344-414/S415R/V416A/S417A): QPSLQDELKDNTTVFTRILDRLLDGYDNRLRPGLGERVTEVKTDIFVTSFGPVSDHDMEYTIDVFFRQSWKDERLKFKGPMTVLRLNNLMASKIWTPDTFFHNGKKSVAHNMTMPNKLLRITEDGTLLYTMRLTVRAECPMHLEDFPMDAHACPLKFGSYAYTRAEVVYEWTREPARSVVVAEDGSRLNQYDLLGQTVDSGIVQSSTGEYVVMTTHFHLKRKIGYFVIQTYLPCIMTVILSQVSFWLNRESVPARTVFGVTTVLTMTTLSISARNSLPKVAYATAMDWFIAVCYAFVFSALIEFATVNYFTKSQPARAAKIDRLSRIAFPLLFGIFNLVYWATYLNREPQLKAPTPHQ
# Sequence of α1β3 cryo-EM construct (α1β3CryoEM) (P28472 with tags, fused parts or gaps, stated change not applied): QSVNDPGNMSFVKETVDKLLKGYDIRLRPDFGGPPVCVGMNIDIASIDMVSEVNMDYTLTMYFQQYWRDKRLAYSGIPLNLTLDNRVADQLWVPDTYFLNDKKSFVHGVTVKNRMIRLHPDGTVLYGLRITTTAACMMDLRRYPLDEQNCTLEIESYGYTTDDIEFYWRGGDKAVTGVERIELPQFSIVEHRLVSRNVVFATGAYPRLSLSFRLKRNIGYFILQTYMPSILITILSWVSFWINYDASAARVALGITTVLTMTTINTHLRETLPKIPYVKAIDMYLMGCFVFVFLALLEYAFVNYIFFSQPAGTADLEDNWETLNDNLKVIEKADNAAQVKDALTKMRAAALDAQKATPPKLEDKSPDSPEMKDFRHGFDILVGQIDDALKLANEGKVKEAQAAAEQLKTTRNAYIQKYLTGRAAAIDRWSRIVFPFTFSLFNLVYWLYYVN
# Excerpt: The α1 intracellular M3–M4 loop amino acids 313–391 (RGYA…NSVS) were substituted by the SQPARAA sequence[46]. […] The mature engineered α1 construct with a 1D4 purification tag derived from bovine rhodopsin ([sequence]) that is recognized by the Rho-1D4 monoclonal antibody (University of British Columbia)[47],[48] was cloned into the pHLsec vector after the vector secretion signal[49], ending [sequence]. […] The engineered β3 construct was cloned into pHLsec after the vector secretion sequence without any tags.
# as §1, §2, §3
# [5] = test system: αβγ receptors; settings: one β-subunit His replaced by Ile (γ-subunit), relative to αβ; cited from earlier work
# [6] = target: T2, α1β3γ2WT (Homo sapiens, UniProt P14867+P18507+P28472); experiment: GABA concentration used for single channel recording (~EC95); format: cell-based; settings: concentration used for single channel recordings
# T2 construct: expressed in transfected cells; host or cells: HEK 293 cells, transient calcium-phosphate transfection, α1:β3:γ2:GFP 1:1:3:1
# T2 sequence (P18507 40-475, one chain of several): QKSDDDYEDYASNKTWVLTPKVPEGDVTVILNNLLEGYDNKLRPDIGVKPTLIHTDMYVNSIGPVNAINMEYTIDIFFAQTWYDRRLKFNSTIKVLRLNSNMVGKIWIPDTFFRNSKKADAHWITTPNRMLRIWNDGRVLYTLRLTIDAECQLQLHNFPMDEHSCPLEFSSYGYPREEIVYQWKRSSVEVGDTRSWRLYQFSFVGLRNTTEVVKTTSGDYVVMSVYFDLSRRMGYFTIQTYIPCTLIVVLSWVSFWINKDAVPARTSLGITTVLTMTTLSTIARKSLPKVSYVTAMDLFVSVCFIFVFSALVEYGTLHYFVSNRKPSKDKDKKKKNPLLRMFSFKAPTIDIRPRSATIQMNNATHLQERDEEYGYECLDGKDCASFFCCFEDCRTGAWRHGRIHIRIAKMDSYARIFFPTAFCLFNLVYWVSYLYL
# Experimental: Single GABA-activated channel currents were recorded in outside-out patches from transfected HEK 293 cells at –70 mV holding potential. Channel currents were recorded using an Axopatch 200B and filtered at 5 kHz (4-pole Bessel filter) before digitizing at 20 kHz with a Digidata 1322A. The fixed time resolution of the system was set at 80 μs. WinEDR was used for analysing single channel data. The single-channel current was determined from compiling channel current amplitude histograms and fitting Gaussian components to define the mean current, s.d. and the total area of the component. […] Individual open and closed dwell times were measured using a 50% threshold cursor applied to the main single channel current amplitude in each patch. The subsequent detection of open and closed events formed the basis of an idealized single channel record used for compiling the dwell time distributions. Frequency distributions were constructed from the measured individual open and closed times and analysed by fitting a mixture of exponentials, defined by: y(t)=∑i=1nAi/τi×e^(−t/τi) where Ai is the area of the ith component to the distribution and τi represents the corresponding exponential time constant. […] An F-test determined the optimal number of exponential components that were required to fit the individual dwell time distributions. […]
# [7] = target: T2, α1β3γ2WT; experiment: Probability of activation (PA), whole-cell, saturating GABA versus GABA + 1 mM pentobarbitone; format: cell-based; settings: n = 6
# Experimental: as §1
# [8] = target: T1, human GABAA α1β3 (WT); experiment: Whole-cell patch clamp, GABA concentration response, HEK 293 cells; format: cell-based; design: expressed in transfected cells; host or cells: HEK 293 cells, transient calcium-phosphate transfection, α1:β3:GFP 1:1:1
# Experimental: as §1, §3
# [9] = test system: α2-GABAAR subunit; settings: Lys in α2 at the position of α1 Ser69; cited from earlier work
# [10] = test system: GABA-A receptors; settings: author rebuttal, peer review file; reference not given; cited from earlier work
# [11] = 66 nM free Zn2+ (tricine-controlled), wild-type, mean ± s.e.m., n = 7
# [12] = 66 nM free Zn2+ (tricine-controlled), α1β3 cryo-EM construct, mean ± s.e.m., n = 7
molecule,measurement,setting,value
NCc1cc(=O)[nH]o1 [muscimol],probability of activation (PA),[1],~ 0.6
[Zn+2] [Zn^2+],reduction of Zn2+ sensitivity,[2],50 fold
same,inhibition of EC20 (1 μM) GABA response,[3]; [11],38 ± 2%
same,inhibition of maximal (1 mM) GABA response,[3]; [11],36 ± 6%
same,IC50,"[3]; α1β3WT, 10 mM tricine, mean pIC50 converted, read-out: IC50 free Zn2+ inhibition",149 nM
same,pIC50 free Zn2+ inhibition,"[3]; α1β3WT, 10 mM tricine, n = 8",6.83 ± 0.1
same,inhibition of EC20 (1 μM) GABA response,[4]; [12],32 ± 2%
same,inhibition of maximal (1 mM) GABA response,[4]; [12],32 ± 4%
same,inhibition,"[4]; 20 μM Zn2+, Extended Data Fig. 5a (shows WT and cryo-EM construct)",approximately 90%
same,IC50,"[4]; read-out: IC50 Zn2+ inhibition, α1β3CryoEM, absence of tricine",220 nM
same,IC50,"[4]; read-out: IC50 free Zn2+ inhibition, α1β3CryoEM, 10 mM tricine",230 nM
same,pIC50 free Zn2+ inhibition,"[4]; α1β3CryoEM, 10 mM tricine, n = 7",6.64 ± 0.2
same,pIC50 Zn2+ inhibition,"[4]; α1β3CryoEM, absence of tricine, n = 6",6.66 ± 0.11
same,reduction of Zn2+ sensitivity,[5],200 fold
"NCCCC(=O)O [GABA, γ-aminobutyric acid]",GABA ~EC95,[6],~100000 nM
same,probability of activation (PA),[7],> 0.9 and 0.94 ± 0.03
same,GABA EC20,"[8]; submaximal (20%) response, used for wild-type and cryo-EM construct",1000 nM
same,GABA ~EC95,"[8]; α1β3WT, concentration used for single channel recordings",~30000 nM
B1,reduction of sensitivity to α-CBTx,[9],fivefold
same,sensitivity of GABA-A receptors,[10],sub-micromolar
